In one series the target is T1, AAT (Homo sapiens, UniProt P01009, E366K).
T1 construct: expressed in transfected cells; host or cells: NL20 human bronchial epithelial cells (NL20-SI cell line), with doxycycline added alongside the compounds
Description: Compound Quality score (potency in AAT functional assay multiplied by unbound clearance). Particulars: compound potency (EC50) x unbound clearance; class symbols. An excerpt: As used herein, the term “Compound Quality” refers to the potency of a compound multiplied (x) by the compound's unbound clearance as measured using the assays described in Example 6.
The terms “unbound clearance” refer to unbound intrinsic clearance (unbound CLint) in hepatocytes—the intrinsic clearance a drug would have in the absence of protein binding. Unbound CLint=CLint,hep/fu,hep, where CLint,hep is intrinsic clearance in hepatocytes and fu,hep is unbound fraction in hepatocytes.
A key consideration for the selection of compounds suitable for clinical development is the projection of human dose as described in Equations 1-3. Two key parameters that comprise the dose equation are the unbound clearance of a compound and the plasma efficacious exposure (also referred to herein as compound potency). Together these parameters are known to one skilled in the art as a measurement of Compound Quality and suitability for advancement into clinical development. Thus, when evaluating AAT modulator compounds, one needs to consider both the potency and unbound clearance parameters (i.e., Compound Quality). The relationship between these two parameters can be challenging to predict.
The values provided in the table below are calculated by multiplying the EC50 of each of the compounds by the result from the clearance assay procedures described in Section C above and rounded to two significant figures. In the table below, the following meanings apply for Compound Quality (i.e., compound potency x unbound clearance) values: “++++” means ≤0.2; “+++” means >0.20 and ≤0.30; “++” means >0.30 and ≤0.40; “+” means >0.40 and ≤0.50.

Series [1] can be described thus: Exposure multiple in rat 5-day toxicology studies. The series is classed as in vivo. Also on record: key to Exposure Multiple: ratio of tox-species AUC to target efficacious AUCss. As to conditions: for EM Score: based on the maximum exposure multiple achieved in the rat 5-day toxicology study; for Exposure Multiple: rat 5-day toxicology study, vs predicted human efficacious exposure. An excerpt:
“Exposure multiple” as used herein, refers to an assessment of relative compound exposure in toxicology studies. The calculation of an exposure multiple is accomplished by comparing the exposure (AUC) achieved in a toxicology species relative to the target efficacious exposure at steady state (AUCss). The larger exposure multiple provides the opportunity to explore higher doses relative to efficacious concentration in clinical development. However, the exposure that results in an adverse toxicological outcome is unpredictable.
The calculation of an exposure multiple is accomplished by comparing the plasma exposure (AUC) achieved in a toxicology species relative to the target efficacious exposure at steady state (AUCss). […] In addition, this exposure multiple can allow for further exploration of the desired pharmacology due to the opportunity for a larger window established in toxicology studies. However, the exposure that results in a toxicological outcome in preclinical toxicology studies is unpredictable.
Human exposure multiple (EM) values shown relate to the fold increase in exposure achieved in rat 5-day toxicology studies for a given dose relative to the predicted efficacious exposure anticipated in human (based on cellular NL20 EC50 in vitro efficacy). The exposure multiple score is based on the maximum exposure multiple achieved in the given study. This allows relative comparison across compounds when also considering the administered dose. […] In the tables below, the following meanings apply for exposure multiple scores: “−” means <1; “+” means 1-10; “++” means 10-20; “+++” means 20-30; “++++” means 30-50; and “+++++” means >50.

SMILES strings stand for the structures.

T1 sequence (P01009 25-418 E366K): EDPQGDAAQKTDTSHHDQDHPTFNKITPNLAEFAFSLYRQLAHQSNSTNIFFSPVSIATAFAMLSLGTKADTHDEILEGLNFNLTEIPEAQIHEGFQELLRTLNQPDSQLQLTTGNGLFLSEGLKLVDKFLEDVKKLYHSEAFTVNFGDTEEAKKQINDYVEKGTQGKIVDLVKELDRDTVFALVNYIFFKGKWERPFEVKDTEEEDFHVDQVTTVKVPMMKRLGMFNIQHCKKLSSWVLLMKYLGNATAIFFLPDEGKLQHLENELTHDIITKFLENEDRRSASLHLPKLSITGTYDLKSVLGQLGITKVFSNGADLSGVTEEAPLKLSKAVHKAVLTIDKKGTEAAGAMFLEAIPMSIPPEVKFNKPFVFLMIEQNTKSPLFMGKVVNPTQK

With `CC[C@@](O)(COC)c1c(-c2ccc(C(=O)O)cc2)c2c(F)c3[nH]ncc3cc2n1-c1ccc(F)c(Cl)c1` [Compound 4], the “Compound Quality” value on AAT is “+++ (“+++” means >0.20 and ≤0.30)”. For the same compound, the “EM Score” value in series [1] is given as “++++ (“++++” means 30-50)”. Also, the “Exposure Multiple” value in series [1] (Bid dose 50 (daily 100)) is reported as 8; in series [1] (Bid dose 200 (daily 400)) it was 21; in series [1] (Bid dose 400 (daily 800)), 32.
Take `CC[C@@](O)(COC)c1c(-c2ccc(C(=O)O)cc2)c2c(F)c3[nH]ncc3cc2n1-c1ccc(F)c(F)c1` [Compound 5, (S)-4-(5-(3,4-Difluorophenyl)-8-fluoro-6-(2-hydroxy-1-methoxybutan-2-yl)-1,5-dihydropyrrolo[2,3-f]indazol-7-yl)benzoic acid]: on AAT, the “Compound Quality” value is given as “++++ (“++++” means ≤0.2)”. The “EM Score” value in series [1] was “+++++ (“+++++” means >50)”. Besides, the “Exposure Multiple” value is reported as 39 in series [1] (Bid dose 50 (daily 100)), 114 in series [1] (Bid dose 150 (daily 300)) and 173 in series [1] (Bid dose 300 (daily 600)).
